Tests used:
human PRDX5 [1] = molecular target: T1, human PRDX5 (Homo sapiens, UniProt P30044); assay: NMR screening: STD factor (f STD) of fragments with PRDX5; type: binding; conditions: for f STD: F152 compared with D3; for STD factor (f STD): Figure 2, relative degree of saturation normalized to that of F090
T1 construct: 6xHis (N); made in house; host or cells: E. coli strain M15 (pRep4)
T1 sequence (P30044 53-214): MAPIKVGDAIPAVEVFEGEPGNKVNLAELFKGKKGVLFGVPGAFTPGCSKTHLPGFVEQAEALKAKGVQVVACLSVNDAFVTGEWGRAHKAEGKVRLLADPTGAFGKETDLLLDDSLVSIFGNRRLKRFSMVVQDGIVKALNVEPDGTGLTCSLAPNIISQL
Description: All spectra were acquired at 20°C with a Varian Inova 600 MHz NMR spectrometer, equipped with a standard 5 mm triple-resonance inverse probe with a z-axis field gradient, actively shielded, and with an autosampler robot. The NMR samples were prepared with a robot TECAN Miniprep 60. For 175 fragments, 32 NMR tubes were prepared with 20 µM of the reduced protein and 600 µM fragments. For 25 fragments (6 NMR samples) that were not soluble at 600 µM in water, the final concentration in the NMR tube was set to 200 µM. All samples contained 1 mM DTT. […] Control 1D ^1H spectra preceded all experiments to assess the purity and stability of the fragments. NMR screening was achieved using 1D STD [30] and Waterlogsy experiments. The parameters used were the same as previously described. All NMR spectra were processed with the Varian VnmrJ software.
(§1) KD values were determined by fitting the plot of [L]tot vs. f STD as previously published.

human PRDX5 [2] = molecular target: T1, human PRDX5; assay: Thioredoxin peroxidase activity inhibition assay; type: biochemical; conditions: 0–600 µM
Description: Inhibition of thioredoxin peroxidase activity was assayed using thioredoxin peroxidase assay in a 96-well plate reader essentially as described by Kim et al. [48] and Theys et al. [49]. Briefly, the spectrometric assay was performed in a 160 µl reaction mixture containing 500 µM NADPH, 4 µM recombinant S.cerevisiae thioredoxin, 2 µM recombinant S.cervisiae thioredoxin reductase, 0.6 µM human recombinant PRDX5 and increasing concentrations (0 to 6 mM) of fragments (from stock solutions in DMSO) in PBS 0.1M (pH 7.4). The reaction was initiated by adding H2O2 at the final concentration of 100 µM. NADPH oxidation was monitored by following absorbance at 340 nm for 30 min at 37°C. The initial rate of reaction was calculated using the linear portion of the curve and was expressed as the amount of NADPH oxidized per min. The IC50 was calculated with the percentage of remaining thioredoxin peroxidase activity. Measurements were performed in quadruplicates.

[3] = Solubility in water / in the assay; type: physicochemical; conditions: for solubility in water: for KD measurement by STD titration; for solubility in the assay: thioredoxin peroxidase inhibition assay
Source text: We previously designed a small generalist library of 60 fragments and used it to elaborate an inhibitor of the Creatine kinase protein [27], based on the identification of an initial fragment by NMR screening. Here, the library was enlarged and contains 200 fragments that correspond to small commercial compounds with physicochemical properties defined by the rule of three. The 140 newly added fragments were chosen so as to enhance the diversity of the library in terms of size, shape and chemical functionalities. […] Waterlogsy experiments were recorded to detect possible aggregation as LOGSY effects are characteristic of high molecular weight compounds in water. When the molecules were not soluble at 600 µM, solutions were tested at 200 µM. If not soluble, the molecules were rejected from the selection. Then, to optimize the experimental time and to reduce the protein quantity required for the NMR screening experiments, fragments were pulled into mixtures of 3 to 6 molecules with minimum spectral overlap. NMR spectra of the mixtures were recorded after 3 months to confirm the absence of degradation of the compounds.
The compounds of the library were chosen from Aldrich or Acros online catalogs with SHAPES-like criteria [40]–[42] and had to fit the rule of three. Aqueous solubility was checked for all compounds by recording ^1H 1D NMR spectrum and Waterlogsy spectrum, [43]. 110 mM stock solutions of the library compounds were prepared in DMSO-d 6 and conserved at −20°C. ^1H 1D NMR spectrum were recorded to check that no degradation occurs over 3 months. Compounds were mixed by 3 to 6 to decrease the NMR experimental time as well as the protein quantity. Criteria for the compound selection for the mixtures were the absence of overlapping resonances in the 1D NMR spectra. The library contained 200 validated fragments.

human PRDX5 [4] = molecular target: T1, human PRDX5; assay: KD measurements by STD factor variation upon titration; type: binding
Description: as §1

Row | Compound | STD factor (f STD) (human PRDX5 [1]) | solubility in water [3] | other results
1 | Cc1ccc(O)c(O)c1 [D3, 4-methyl-catechol] |  |  | f STD (human PRDX5 [1]): 66%
2 | Oc1ccccc1-c1ccccc1 [F012] | 88 | too low | inhibitory activity on thioredoxin peroxidase activity (human PRDX5 [2]): no inhibitory activity
3 | Oc1cccc2[nH]c3ccccc3c12 [F069] | 42 | too low | 
4 | O=C(c1ccccc1)c1ccc(O)cc1O [F082] | 69 | too low | 
5 | Oc1ccccc1Cc1ccccc1O [F090, bis-(2-hydroxyphenyl)-methan] | 100 |  | Kd (human PRDX5 [4]; STD titration, reduced PRDX5, read-out: dissociation constant KD): 1200 ± 400 µM; ligand efficiency (human PRDX5 [4]; free energy of binding divided by the number of heavy atoms): 1.76 kJ/mol; solubility in the assay [3]: insufficient solubility
6 | Oc1ccc(-c2ccc(O)cc2)cc1 [F093] | 76 | too low | solubility in the assay [3]: insufficient solubility
7 | Oc1ccccc1O [F152, catechol] | 32 |  | f STD (human PRDX5 [1]): 32%
